This passage reports T/C results from PubChem BioAssay AID330 (DTP/NCI, 2004).

The subject of this experiment is P388 leukemia ip, CD2F1 mice, survival T/C. Nature of the experiment: NCI In Vivo Anticancer Drug Screen. Data for tumor model P388 Leukemia (intraperitoneal) in CD2F1 (CDF1) mice. The settings on record: endpoint: median survival time, higher = longer survival. Summed up:
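Mice carrying the transplanted tumor received test compound or vehicle. Survival was recorded in each group, and the value is the treated-group measurement divided by that of the vehicle-treated control group.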

The mark [1] stands for this setting: dose: 12.5 mg/kg/injection, schedule: Q04DX003 (ip), vehicle: saline.
[2] abbreviates: dose: 25.0 mg/kg/injection, schedule: Q04DX003 (ip), vehicle: saline.
[3] abbreviates: dose: 50.0 mg/kg/injection, schedule: Q01DX009 (ip), vehicle: saline.
The mark [4] stands for this setting: dose: 50.0 mg/kg/injection, schedule: Q04DX003 (ip), vehicle: saline.
Setting [5] is: dose: 100.0 mg/kg/injection, schedule: Q01DX009 (ip), vehicle: saline with Tween-80.
The mark [6] stands for this setting: dose: 200.0 mg/kg/injection, schedule: Q01DX009 (ip), vehicle: saline with Tween-80.
Where [7] appears, read: dose: 200.0 mg/kg/injection, schedule: Q01DX009 (ip), vehicle: saline.
[8] abbreviates: dose: 400.0 mg/kg/injection, schedule: Q01DX009 (ip), vehicle: saline.
The mark [9] stands for this setting: dose: 50.0 mg/kg/injection, schedule: Q01DX009 (ip), vehicle: Klucel (hydroxypropylcellulose) (HPC).
[10] abbreviates: dose: 100.0 mg/kg/injection, schedule: Q01DX009 (ip), vehicle: Klucel (hydroxypropylcellulose) (HPC).
Setting [11] is: dose: 200.0 mg/kg/injection, schedule: Q01DX009 (ip), vehicle: Klucel (hydroxypropylcellulose) (HPC).
Setting [12] is: dose: 50.0 mg/kg/injection, schedule: Q01DX009 (ip), vehicle: saline with Tween-80.
The mark [13] stands for this setting: dose: 100.0 mg/kg/injection, schedule: Q01DX009 (ip), vehicle: saline.

Where “and” joins values, the source holds several entries; their conditions need not be identical. Equal entries are not always repeated. Toxic doses and inconclusive results are not listed.

In the case of `O=C(O)C1C[n+]2ccccc2O1` (stereo unspecified), the T/C runs as follows: (dose: 12.5 mg/kg/injection, schedule: Q01DX009 (ip), vehicle: saline) 100 % of control; under setting [1], 91 % of control; (dose: 25.0 mg/kg/injection, schedule: Q01DX009 (ip), vehicle: saline) 100 % of control; under setting [2], 100 % of control; under setting [3], 109 % of control; under setting [4], 95 % of control.
For `O=c1[nH]c2ccccc2[nH]c1=O`, the T/C is, setting by setting: under setting [3], 100 % of control; under setting [5], 94 % of control; under setting [6], 92 % of control; under setting [7], 100 % of control and 97 % of control; under setting [8], 88 % of control.
Turning to `CSc1nc(N)c(NS(=O)(=O)c2ccc(NC(C)=O)cc2)c(=O)[nH]1`, the T/C (dose: 60.0 mg/kg/injection, schedule: Q01DX005 (ip), vehicle: saline with Tween-80) is 93 % of control; the T/C (dose: 120.0 mg/kg/injection, schedule: Q01DX005 (ip), vehicle: saline with Tween-80) was 91 % of control; the T/C (dose: 240.0 mg/kg/injection, schedule: Q01DX005 (ip), vehicle: saline with Tween-80) was 96 % of control.
Regarding `CC(C)(C)c1ccc(C(=O)O)c(O)c1.CC(C)(C)c1ccc(C(=O)O)c(O)c1.[Cu]`, the T/C was 102 % of control under setting [1], 94 % of control under setting [2] and 103 % of control under setting [4].
With `COc1cc2c(cc1OC)OC(C)(C)C=C2`, the T/C reads like this: (dose: 6.87 mg/kg/injection, schedule: Q01DX009 (ip), vehicle: saline with Tween-80) 106 % of control; (dose: 13.75 mg/kg/injection, schedule: Q01DX009 (ip), vehicle: saline with Tween-80) 98 % of control; (dose: 27.5 mg/kg/injection, schedule: Q01DX009 (ip), vehicle: saline with Tween-80) 108 % of control; (dose: 55.0 mg/kg/injection, schedule: Q01DX009 (ip), vehicle: saline with Tween-80) 102 % of control.
For `C1=NC(C2CC2)c2ccc3c([nH]c4ccccc43)c2N1` (stereo unspecified), the T/C is, setting by setting: (dose: 100.0 mg/kg/injection, schedule: Q04DX002 (ip), vehicle: Klucel (hydroxypropylcellulose) (HPC)) 101 % of control; (dose: 200.0 mg/kg/injection, schedule: Q04DX002 (ip), vehicle: Klucel (hydroxypropylcellulose) (HPC)) 90 % of control.
With `C=CCc1ccc(O)cc1`, the T/C is, setting by setting: (dose: 25.0 mg/kg/injection, schedule: Q01DX009 (ip), vehicle: Klucel (hydroxypropylcellulose) (HPC)) 93 % of control; under setting [9], 99 % of control; under setting [10], 107 % of control; under setting [11], 99 % of control.
In the case of `CC(=O)/C(C=NCC(C)(CN=C/C(C(C)=O)=C(/C)O)CN=C/C(C(C)=O)=C(/C)O)=C(\C)O` (stereo unspecified), the T/C was 97 % of control under setting [9], 100 % of control under setting [10] and 100 % of control under setting [11].
For the compound `CC(Br)C(=O)c1ccc(OCc2ccccc2)cc1` (stereo unspecified), the T/C reads like this: under setting [12], 110 % of control; under setting [5], 124 % of control; under setting [6], 121 % of control.
For the compound `CCCCCCCCCCCC1C(C#N)C(=O)NC(=O)C1C#N` (stereo unspecified), the T/C by setting is: under setting [9], 103 % of control; under setting [10], 94 % of control; under setting [11], 100 % of control.
Turning to `CC(Nc1cccc([N+](=O)[O-])c1)S(=O)(=O)O` (stereo unspecified), the T/C by setting is: under setting [3], 97 % of control; under setting [13], 100 % of control; under setting [7], 97 % of control.
Take `C[C@H]1C[C@H](c2ccccc2)[C@@H](c2ccccc2)C(=O)O1`: the T/C was 93 % of control (dose: 100.0 mg/kg/injection, schedule: Q04DX003 (ip), vehicle: Klucel (hydroxypropylcellulose) (HPC)); 92 % of control (dose: 200.0 mg/kg/injection, schedule: Q04DX003 (ip), vehicle: Klucel (hydroxypropylcellulose) (HPC)); 92 % of control (dose: 400.0 mg/kg/injection, schedule: Q04DX003 (ip), vehicle: Klucel (hydroxypropylcellulose) (HPC)).
As to `C=C1C(=O)OCC1(C(=O)OCC)C(=O)OCC`, the T/C (dose: 4.0 mg/kg/injection, schedule: Q01DX009 (ip), vehicle: saline with Tween-80) is 117 % of control; the T/C (dose: 8.0 mg/kg/injection, schedule: Q01DX009 (ip), vehicle: saline with Tween-80) is 117 % of control and 124 % of control; the T/C (dose: 16.0 mg/kg/injection, schedule: Q01DX009 (ip), vehicle: saline with Tween-80) is 115 % of control; the T/C (dose: 32.0 mg/kg/injection, schedule: Q01DX009 (ip), vehicle: saline with Tween-80) is 115 % of control.
Turning to `N#CN=C(N)N`, the T/C was 115 % of control (dose: 18.8 mg/kg/injection, schedule: Q01DX005 (ip), vehicle: saline); 112 % of control (dose: 37.5 mg/kg/injection, schedule: Q01DX005 (ip), vehicle: saline); 98 % of control (dose: 75.0 mg/kg/injection, schedule: Q01DX005 (ip), vehicle: saline); 96 % of control (dose: 100.0 mg/kg/injection, schedule: Q01DX005 (ip), vehicle: saline); 105 % of control (dose: 150.0 mg/kg/injection, schedule: Q01DX005 (ip), vehicle: saline); 102 % of control (dose: 200.0 mg/kg/injection, schedule: Q01DX005 (ip), vehicle: saline). Moreover, the T/C was 118 % of control (dose: 300.0 mg/kg/injection, schedule: Q01DX005 (ip), vehicle: saline); 99 % of control (dose: 400.0 mg/kg/injection, schedule: Q01DX005 (ip), vehicle: saline); 112 % of control (dose: 600.0 mg/kg/injection, schedule: Q01DX005 (ip), vehicle: saline); 101 % of control (dose: 800.0 mg/kg/injection, schedule: Q01DX005 (ip), vehicle: saline).
Take `CCO[Si](CCSC(=O)N(CCCl)CCCl)(OCC)OCC`: the T/C reads like this: (dose: 100.0 mg/kg/injection, schedule: Q04DX002 (ip), vehicle: saline with Tween-80) 99 % of control; (dose: 200.0 mg/kg/injection, schedule: Q04DX002 (ip), vehicle: saline with Tween-80) 98 % of control; (dose: 400.0 mg/kg/injection, schedule: Q04DX002 (ip), vehicle: saline with Tween-80) 107 % of control.
On to `CCN(CC)CN1C(=O)C2C3C=CC(C2C1=O)C1C2C(=O)N(CN(CC)CC)C(=O)C2C31` (stereo unspecified), for which the T/C (dose: 25.0 mg/kg/injection, schedule: Q01DX009 (ip), vehicle: saline with Tween-80) is 103 % of control; the T/C under setting [12] was 102 % of control and 111 % of control; the T/C under setting [5] was 116 % of control and 117 % of control and 119 % of control; the T/C under setting [6] is 119 % of control; the T/C (dose: 400.0 mg/kg/injection, schedule: Q01DX009 (ip), vehicle: saline with Tween-80) is 111 % of control.
Regarding `CC1(COCCOCC2(C)CO2)CO1` (stereo unspecified), the T/C was 118 % of control under setting [13]; 100 % of control (dose: 100.0 mg/kg/injection, schedule: Q04DX003 (ip), vehicle: saline); 113 % of control (dose: 200.0 mg/kg/injection, schedule: Q04DX003 (ip), vehicle: saline); 177 % of control (dose: 400.0 mg/kg/injection, schedule: Q01DX009 (ip), vehicle: saline sonified); 172 % of control under setting [8]; 109 % of control (dose: 400.0 mg/kg/injection, schedule: Q04DX003 (ip), vehicle: saline). The T/C (dose: 600.0 mg/kg/injection, schedule: Q01DX009 (ip), vehicle: saline sonified) was 200 % of control.
Consider `CCCC1OP(=O)(N(CCOC(C)=O)CCOC(C)=O)OCC1CC` (stereo unspecified), for which the T/C by setting is: (dose: 50.0 mg/kg/injection, schedule: Q01DX005 (ip), vehicle: Klucel (hydroxypropylcellulose) (HPC)) 96 % of control; (dose: 100.0 mg/kg/injection, schedule: Q01DX005 (ip), vehicle: Klucel (hydroxypropylcellulose) (HPC)) 98 % of control; (dose: 200.0 mg/kg/injection, schedule: Q01DX005 (ip), vehicle: Klucel (hydroxypropylcellulose) (HPC)) 96 % of control.
On to `CN1CCCN(C)C1c1ccc(Cl)cc1`, for which the T/C runs as follows: (dose: 12.5 mg/kg/injection, schedule: Q01DX009 (ip), vehicle: saline sonified) 90 % of control; (dose: 25.0 mg/kg/injection, schedule: Q01DX009 (ip), vehicle: saline sonified) 90 % of control.
